In the NIST ThermoML archive (doi:10.1021/acs.jced.7b01091):

Settings: Liquid; for vapor or sublimation pressure: Closed cell (Static) method; for mass density: 101.33 kPa, Vibrating tube method

ClCCCl [1,2-dichloroethane]
Settings	mass density [kg/m3]	vapor or sublimation pressure [kPa]
284.87 K	–	5.38
294.83 K	–	8.97
294.84 K	–	8.96
298.15 K	1245.68	10.53
304.82 K	–	14.34
314.81 K	–	22.19
314.83 K	–	22.18
324.83 K	–	33.27
334.82 K	–	48.47
344.81 K	–	67.97
354.89 K	–	94.96

C1COCO1 [1,3-dioxolane]
Settings	mass density [kg/m3]	vapor or sublimation pressure [kPa]
275 K	–	3.86
284.94 K	–	6.74
294.82 K	–	11.33
298.15 K	1058.76	13.31
304.79 K	–	18.26
314.76 K	–	28.28
324.9 K	–	43.07
334.85 K	–	62.99
344.82 K	–	89.85
350.77 K	–	109.39

C1COCCO1 [1,4-dioxane]
Settings	mass density [kg/m3]	vapor or sublimation pressure [kPa]
284.59 K	–	2.23
294.82 K	–	3.92
298.15 K	1027.87	4.68
304.81 K	–	6.58
314.76 K	–	10.54
324.92 K	–	16.71
334.92 K	–	25.52
344.89 K	–	37.55
354.92 K	–	54.11

C1CCOCC1 [tetrahydropyran]
Settings	mass density [kg/m3]	vapor or sublimation pressure [kPa]
275.59 K	–	2.85
285.53 K	–	4.91
295.42 K	–	8.07
298.15 K	879.16	9.25
305.37 K	–	12.85
315.36 K	–	19.9
325.65 K	–	29.99
335.6 K	–	43.81
345.59 K	–	61.17
355.49 K	–	84.29
